Measurements taken from patent US9445594B2, “Molecules having certain pesticidal utilities, intermediates, compositions, and processes, related thereto” (priority 2014, dated 2016).

Assays:
Assay type in all cases: in vivo
[1] = tested on: Green Peach Aphid (Myzus persicae, MYZUPE) ("GPA"); test: Bioassays on GPA, foliar spray of infested cabbage seedlings; conditions: 72 h, 200 ppm spray on cabbage seedlings, graded after three days, Abbott corrected % control, read-out: GPA % Control (or Mortality) rating
Procedure: Certain molecules disclosed in this document were tested against GPA using procedures described in the following example. In the reporting of the results, the “GPA Rating Table” was used (See Table Section).
Cabbage seedlings grown in 3-inch pots, with 2-3 small (3-5 cm) true leaves, were used as test substrate. The seedlings were infested with 20-50 GPA (wingless adult and nymph stages) one day prior to chemical application. Four pots with individual seedlings were used for each treatment. Test compounds (2 mg) were dissolved in 2 mL of acetone/methanol (1:1) solvent, forming stock solutions of 1000 ppm test compound. The stock solutions were diluted 5× with 0.025% Tween 20 in water to obtain the solution at 200 ppm test compound. A hand-held aspirator-type sprayer was used for spraying a solution to both sides of […] leaves until runoff. Reference plants (solvent check) were sprayed with the diluent only containing 20% by volume of acetone/methanol (1:1) solvent. Treated plants were held in a holding room for three days at approximately 25° C. and ambient relative humidity (RH) prior to grading. Evaluation was conducted by counting the number of live aphids per plant under a microscope. Percent Control was measured by using Abbott's correction formula (W. S. Abbott, “A Method of Computing the Effectiveness of an Insecticide” J. Econ. Entomol. 18 (1925), pp. 265-267) as follows. Corrected % Control=100*(X−Y)/X • where • X=No. of live aphids on solvent check plants and • Y=No. of live aphids on treated plants

[2] = tested on: Yellow Fever Mosquito (Aedes aegypti, AEDSAE) ("YFM"); test: Bioassays on YFM, 96-well plate larval assay; conditions: about 1 day-old larvae, from 4000 ppm DMSO master plate diluted, room temperature, scored after 3 days
How it was run: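 Compounds from 4000 ppm DMSO master plates, diluted in 90:10 water:acetone, dispensed into 96-well plates, six replicates. About 1-day-old larvae added in liver-powder water. Wells covered, held 3 days at room temperature, then scored for mortality.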

[3] = tested on: Cabbage Looper (Trichoplusia ni, TRIPNI) ("CL"); test: Bioassays on CL, 128-well diet tray assay; conditions: 168 h, second instar larvae, 50 μg/cm^2 on artificial diet, 25° C., five to seven days, average of eight wells, read-out: CL % Control (or Mortality) rating
How it was run: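 Second-instar larvae (one to five per well) on artificial diet surface-treated with 50 μg/cm^2 compound in 90:10 acetone-water, eight wells per treatment. Held at 25° C., 14:10 light-dark for five to seven days. Percent mortality scored per well and averaged over the eight wells.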

[4] = tested on: Beet Armyworm (Spodoptera exigua, LAPHEG) ("BAW"); test: Bioassays on BAW, 128-well diet tray assay; conditions: 168 h, second instar larvae, 50 μg/cm^2 on artificial diet, 25° C., five to seven days, average of eight wells, read-out: BAW % Control (or Mortality) rating
How it was run: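 One to five second-instar larvae were placed per well on artificial diet surface-treated with 50 μg/cm^2 compound from 90:10 acetone-water, dried before infestation. Trays were held at 25 °C, 14:10 light-dark, for five to seven days. Percent mortality was averaged over eight wells.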

| SMILES | mortality at 200 ppm [1] [%] | YFM % Control (or Mortality) rating [2] | mortality at 50 µg/cm2 [3] [%] | mortality at 50 µg/cm2 [4] [%] |
| --- | --- | --- | --- | --- |
| CCc1ccccc1-c1ccccc1NC(=S)Nc1ccc(-c2ncn(-c3ccc(OC(F)(F)F)cc3)n2)cc1 [F4, 1-(2′-Ethyl-[1,1′-biphenyl]-2-yl)-3-(4-(1-(4-(trifluoromethoxy)phenyl)-1H-1,2,4-triazol-3-yl)phenyl)thiourea] | 0 | A (80-100) | 50 to 100 | 50 to 100 |
| C#Cc1ccccc1NC(=O)Nc1ccc(-c2ncn(-c3ccc(OC(F)(F)F)cc3)n2)cc1 [F5, 1-(2-Ethynylphenyl)-3-(4-(1-(4-(trifluoromethoxy)phenyl)-1H-1,2,4-triazol-3-yl)phenyl)urea] | 0 | D (No activity noticed in this bioassay) | 50 to 100 | 50 to 100 |
| CC(C)c1ccccc1N(C(=O)Nc1ccc(-c2ncn(-c3ccc(OC(F)(F)F)cc3)n2)cc1)C(N)=S [F6, N-[2-(Propan-2-yl)phenyl]-N-(4-{1-[4-(trifluoromethoxy)phenyl]-1H-1,2,4-triazol-3-yl}phenyl)dicarbonimidothioic diamide] | 0 to 80 | A (80-100) | 50 to 100 | 50 to 100 |
| Cc1ccccc1-c1cccnc1NC(=S)Nc1ccc(-c2ncn(-c3ccc(OC(F)(F)F)cc3)n2)cc1 [F11, 1-(3-(o-Tolyl)pyridin-2-yl)-3-(4-(1-(4-(trifluoromethoxy)phenyl)-1H-1,2,4-triazol-3-yl)phenyl)thiourea] | 0 to 80 | D (No activity noticed in this bioassay) |  | 50 to 100 |
| CCc1ccccc1-c1cccnc1NC(=O)Nc1ccc(-c2ncn(-c3ccc(OC(F)(F)F)cc3)n2)cc1 [F16, 1-(3-(2-Ethylphenyl)pyridin-2-yl)-3-(4-(1-(4-(trifluoromethoxy)phenyl)-1H-1,2,4-triazol-3-yl)phenyl)urea] | 0 to 80 | D (No activity noticed in this bioassay) | 50 to 100 | 50 to 100 |
| CC(C)CC(C)c1ccccc1NC(=O)Nc1ccc(-c2ncn(-c3ccc(OC(F)(F)F)cc3)n2)cc1 (centres unmarked) [F18, 1-(2-(4-methylpentan-2-yl)phenyl)-3-(4-(1-(4-(trifluoromethoxy)phenyl)-1H-1,2,4-triazol-3-yl)phenyl)urea] | 0 | D (No activity noticed in this bioassay) | 50 to 100 | 50 to 100 |
| CCc1ccccc1-c1cccnc1NC(=S)Nc1ccc(-c2ncn(-c3ccc(OC(F)(F)F)cc3)n2)cc1 [F20, 1-(3-(2-Ethylphenyl)pyridin-2-yl)-3-(4-(1-(4-(trifluoromethoxy)phenyl)-1H-1,2,4-triazol-3-yl)phenyl)thiourea] | 0 to 80 | D (No activity noticed in this bioassay) | 50 to 100 | 0 to 50 |
| CSc1ccccc1-c1cccnc1NC(=S)Nc1ccc(-c2ncn(-c3ccc(OC(F)(F)F)cc3)n2)cc1 [F22, 1-(3-(2-(Methylthio)phenyl)pyridin-2-yl)-3-(4-(1-(4-(trifluoromethoxy)phenyl)-1H-1,2,4-triazol-3-yl)phenyl)thiourea] | 0 to 80 | D (No activity noticed in this bioassay) | 50 to 100 | 0 to 50 |
| CC(C)c1ccccc1-c1ccccc1NC(=S)Nc1ccc(-c2ncn(-c3ccc(OC(F)(F)F)cc3)n2)cc1 [F28, 1-(2′-isopropyl-[1,1′-biphenyl]-2-yl)-3-(4-(1-(4-(trifluoromethoxy)phenyl)-1H-1,2,4-triazol-3-yl)phenyl)thiourea] | 0 to 80 | D (No activity noticed in this bioassay) | 50 to 100 | 0 to 50 |
| O=C(Nc1ccc(-c2ncn(-c3ccc(OC(F)(F)F)cc3)n2)cc1)Nc1ccccc1-c1ccccc1 [F31, 1-([1,1′-biphenyl]-2-yl)-3-(4-(1-(4-(trifluoromethoxy)phenyl)-1H-1,2,4-triazol-3-yl)phenyl)urea] | 0 to 80 | A (80-100) | 50 to 100 | 50 to 100 |
| CCc1ccccc1-c1ccccc1NC(=O)Nc1ccc(-c2ncn(-c3ccc(OC(F)(F)F)cc3)n2)cc1 [F35, 1-(2′-Ethyl-[1,1′-biphenyl]-2-yl)-3-(4-(1-(4-(trifluoromethoxy)phenyl)-1H-1,2,4-triazol-3-yl)phenyl)urea] | 0 | A (80-100) | 50 to 100 | 50 to 100 |
| CCCc1ccccc1NC(=O)Nc1ccc(-c2ncn(-c3ccc(OC(F)(F)F)cc3)n2)cc1 [F37, 1-(2-propylphenyl)-3-(4-(1-(4-(trifluoromethoxy)phenyl)-1H-1,2,4-triazol-3-yl)phenyl)urea] | 0 to 80 | B (More than 0 - Less than 80) | 50 to 100 | 0 to 50 |
| CC(C)(C)c1ccccc1NC(=O)Nc1ccc(-c2ncn(-c3ccc(OC(F)(F)F)cc3)n2)cc1 [F38, 1-(2-(Tert-butyl)phenyl)-3-(4-(1-(4-(trifluoromethoxy)phenyl)-1H-1,2,4-triazol-3-yl)phenyl)urea] | 0 | D (No activity noticed in this bioassay) | 50 to 100 | 0 to 50 |
| CCc1ccccc1NC(=O)Nc1ccc(-c2ncn(-c3ccc(OC(F)(F)F)cc3)n2)cc1 [F46, 1-(2-Ethylphenyl)-3-(4-(1-(4-(trifluoromethoxy)phenyl)-1H-1,2,4-triazol-3-yl)phenyl)urea] | 0 to 80 | B (More than 0 - Less than 80) | 50 to 100 | 50 to 100 |
| CSc1ccccc1-c1ccccc1NC(=O)Nc1ccc(-c2ncn(-c3ccc(OC(F)(F)F)cc3)n2)cc1 [F60, 1-(2′-(Methylthio)-[1,1′-biphenyl]-2-yl)-3-(4-(1-(4-(trifluoromethoxy)phenyl)-1H-1,2,4-triazol-3-yl)phenyl)urea] | 0 to 80 | A (80-100) | 50 to 100 | 50 to 100 |
| CC(C)c1ccccc1-c1ccccc1NC(=O)Nc1ccc(-c2ncn(-c3ccc(OC(F)(F)F)cc3)n2)cc1 [F63, 1-(2′-Isopropyl-[1,1′-biphenyl]-2-yl)-3-(4-(1-(4-(trifluoromethoxy)phenyl)-1H-1,2,4-triazol-3-yl)phenyl)urea] | 0 to 80 | D (No activity noticed in this bioassay) | 50 to 100 | 50 to 100 |
| O=C(Nc1ccc(-c2ncn(-c3ccc(OC(F)(F)F)cc3)n2)cc1)Nc1ncccc1-c1cccnc1 [F66, 1-([3,3′-Bipyridin]-2-yl)-3-(4-(1-(4-(trifluoromethoxy)phenyl)-1H-1,2,4-triazol-3-yl)phenyl)urea] | 0 to 80 | D (No activity noticed in this bioassay) | 50 to 100 | 50 to 100 |
| O=C(Nc1ccc(-c2ncn(-c3ccc(OC(F)(F)C(F)(F)F)cc3)n2)cc1)Nc1ccccc1-c1ccccc1 [F68, 1-([1,1′-biphenyl]-2-yl)-3-(4-(1-(4-(perfluoroethoxy)phenyl)-1H-1,2,4-triazol-3-yl)phenyl)urea] | 0 to 80 | A (80-100) | 50 to 100 | 50 to 100 |
| Fc1ccc(NC(=S)Nc2ccc(-c3ncn(-c4ccc(OC(F)(F)F)cc4)n3)cc2)cc1 [F72, 1-(4-Fluorophenyl)-3-(4-(1-(4-(trifluoromethoxy)phenyl)-1H-1,2,4-triazol-3-yl)phenyl)thiourea] | 0 | B (More than 0 - Less than 80) |  | 50 to 100 |
